Assay results taken from patent publication US20210038626A1, “COMPOSITIONS COMPRISING AND METHODS OF USING INHIBITORS OF SODIUM-GLUCOSE COTRANSPORTERS 1 AND 2” (Lexicon Pharmaceuticals, Inc., priority 2011, published 2021).

Tests used:
[1] = tested on: patients with type 2 diabetes mellitus; experiment: Phase 2a clinical trial, liquid oral dosage form once daily for 28 days; format: in vivo, human
Description: Certain aspects of this invention may be understood with reference to the figures. FIGS. 1-10 show results obtained from a randomized, double-blind, placebo controlled Phase 2a clinical trial, wherein 150 mg and 300 mg doses of (2S,3R,4R,5S,6R)-2-(4-chloro-3-(4-ethoxybenzyl)phenyl)-6-(methylthio)tetrahydro-2H-pyran-3,4,5-triol were orally administered in solution once daily to patients with type 2 diabetes mellitus. FIG. 11 provides results obtained from a Phase 1 clinical trial, wherein both solid and liquid oral dosage forms of the compound were administered to patients with type 2 diabetes mellitus.
This invention is based, in part, on findings obtained from a randomized, double-blind, placebo controlled Phase 2a clinical trial, wherein 150 mg/day and 300 mg/day doses of a compound of the invention were orally administered in a liquid to patients with type 2 diabetes mellitus. The compound was (2S,3R,4R,5S,6R)-2-(4-chloro-3-(4-ethoxybenzyl)phenyl)-6-(methylthio)tetrahydro-2H-pyran-3,4,5-triol, which has the structure:
Patients (n=36) with type 2 diabetes mellitus received one of two oral doses of (2S,3R,4R,5S,6R)-2-(4-chloro-3-(4-ethoxybenzyl)phenyl)-6-(methylthio)tetrahydro-2H-pyran-3,4,5-triol, given as 150 mg or 300 mg once daily, or matching placebo, for 28 days in solution.
In this study, patients on metformin were taken off of the drug 16 days prior to day 0, the day dosing first began.

[2] = tested on: human SGLT1 / human SGLT2; settings: ratio of human SGLT1 IC50 to human SGLT2 IC50
Description: HEK293 cells were transfected with the human HA-SGLT2-pIRESpuro2 vector and the bulk stable cell line was selected in presence of 0.5 μg/ml of puromycin. Human HA-SGLT2 cells were maintained in DMEM media containing 10% FBS, 1% GPS and 0.5 μg/ml of puromycin.
The HEK293 cells expressing the human HA-SGLT2 were seeded in 384 well plates (30,000 cells/well) in DMEM media containing 10% FBS, 1% GPS and 0.5 μg/ml of puromycin, then incubated overnight at 37 C, 5% CO2. Cells were then washed with uptake buffer (140 mM NaCl, 2 mM KCl, 1 mM CaCl2, 1 mM MgCl2, 10 mM HEPES, 5 mM Tris, 1 mg/ml bovine serum albumin (BSA), pH 7.3). Twenty microliters of uptake buffer with or without testing compounds were added to the cells. […] After washing the cells with uptake buffer, scintillation fluid was added (40 microliters/well) and ^14C-AMG uptake was measured by counting radioactivity using a scintillation coulter (TopCoulter NXT; Packard Instruments).
Cells were then washed with uptake buffer (140 mM NaCl, 2 mM KCl, 1 mM CaCl2, 1 mM MgCl2, 10 mM HEPES, 5 mM Tris, 1 mg/ml bovine serum albumin (BSA), pH 7.3). […] After washing the cells with uptake buffer, scintillation fluid was added (40 microliters/well) and ^14C-AMG uptake was measured by counting radioactivity using a scintillation coulter (TopCoulter NXT; Packard Instruments).

[3] = tested on: patients with type 2 diabetes mellitus; experiment: Phase 1 clinical trial comparing solid and liquid oral dosage forms, single 300 mg dose, crossover; format: in vivo, human; settings: single doses
Description: This invention is further based on findings obtained from a randomized, double-blind, placebo controlled Phase 1 clinical trial that compared liquid and solid dosage forms of the compound.
Patients (n=12) with type 2 diabetes mellitus received one of three oral formulations of 300 mg of (2S,3R,4R,5S,6R)-2-(4-chloro-3-(4-ethoxybenzyl)phenyl)-6-(methylthio)tetrahydro-2H-pyran-3,4,5-triol before breakfast: as two 150 mg tablets, six 50 mg tablets, or 30 mL of 10 mg/mL solution in a randomized sequence implementing a Latin Square crossover design, with a 5-day washout between doses.
Changes in urinary glucose excretion, fasting plasma glucose (FPG), insulin, postprandial glucose (PPG), peptide YY (PYY), and glucagon-like peptide-1(GLP-1) were measured at days −1, 1, 6, and 11.

[4] = 150 mg and 300 mg once daily, 28 days

SGLT1 IC50: SGLT2 IC50 ratio [2]: about 20
Structure (SMILES): CCOc1ccc(Cc2cc([C@@H]3O[C@H](SC)[C@@H](O)[C@H](O)[C@H]3O)ccc2Cl)cc1 [(2S,3R,4R,5S,6R)-2-(4-chloro-3-(4-ethoxybenzyl)phenyl)-6-(methylthio)tetrahydro-2H-pyran-3,4,5-triol]
glucosuria compared to placebo ([1]; 150 mg and 300 mg once daily, 28-day dosing period, preliminary data): significant and sustained glucosuria
adverse events [1, 4]: generally mild and evenly distributed across all dose groups, including placebo
dose-limiting toxicities [1, 4]: no evidence of dose-limiting toxicities
glucose tolerance (FIG. 2) ([1]; 150 mg/day and 300 mg/day treatment groups vs placebo): greater glucose tolerance than those in the placebo group
plasma glucose levels (FIG. 1) ([1]; 150 mg/day and 300 mg/day treatment groups, upon treatment): rapid, statistically significant decrease
post-prandial glucose levels (FIG. 5) ([1]; 150 mg/day and 300 mg/day vs placebo): rapid, statistically significant decrease
insulin sensitivity, homeostatic model assessment (HOMA) (FIG. 4) ([1]; 150 mg/day and 300 mg/day vs placebo, day 27): improved insulin sensitivity compared to placebo
mean diastolic and systolic blood pressures (FIGS. 8 and 9) ([1]; 150 mg/day and 300 mg/day, after 28 days of dosing, vs placebo): decreased mean diastolic and systolic blood pressures
mean arterial pressures (FIG. 10) ([1]; 150 mg/day and 300 mg/day, day 28 vs baseline): also decreased
mean HbA1c levels (FIG. 7) ([1]; 150 mg/day and 300 mg/day, four weeks): marked decrease
FPG and PPG levels [3]: markedly improved
GLP-1 and PYY levels [3]: increased
